Assay results published in PubChem BioAssay (NCI).
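Where inhibition never reached the appropriate level, the endpoint shown equals the highest concentration tested. Otherwise, values were interpolated linearly from a five-concentration, 48-hour dose response in 96-well plates. The concentration for 50% growth inhibition is given as GI50. Definition used: TGI = concentration required for complete inhibition of growth.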 Where a SMILES comes first, the peptide text is derived from it. The star is where a group is joined. Fmoc = O=C(OCC1c2ccccc2-c2ccccc21)*; Boc = CC(C)(C)OC(=O)*

What was measured:
Test in all cases: DTP human tumour cell line panel, 48 h
[1] = test system: HCC-2998 colon
[2] = test system: NCI-H226 lung
[3] = test system: SNB-19 CNS
[4] = test system: HL-60(TB) leukemia
[5] = test system: PC-3 prostate
[6] = test system: SW-620 colon
[7] = test system: UO-31 renal
[8] = test system: SR leukemia
[9] = test system: BT-549 breast
[10] = test system: OVCAR-5 ovarian

With CC(C)(C)OC(=O)NCCCCC(NC(=O)OCC1c2ccccc2-c2ccccc21)C(=O)N1CCCC1C(=O)NCC(N)=O (stereo not drawn) (Fmoc-Lys(Boc)-Pro-Gly-NH2; configuration not given here) the TGI [1] was over 100 µM, the TGI [2] was over 100 µM and the TGI [3] was over 100 µM. The TGI [4] was over 100 µM, the TGI [5] was over 100 µM and the TGI [6] was over 100 µM. It also gave a TGI [7] of 29.1 µM, a TGI [8] of 49.5 µM and a TGI [9] of over 100 µM. The TGI [10] was over 100 µM.

Cc1cc(C)c2c(n1)S(=O)(=O)N(CCCN1CCN(c3cccc(C(F)(F)F)c3)CC1)c1c-2nn(C)c1C was tested, and the TGI [1] was over 100 µM, the TGI [2] was over 100 µM and the TGI [3] was over 100 µM. For the same compound, the TGI [4] was over 100 µM, the TGI [5] was over 100 µM and the TGI [6] was over 100 µM. It also gave a TGI [7] of over 100 µM, a TGI [8] of 62 µM and a TGI [9] of over 100 µM. For the same compound, the TGI [10] was over 100 µM.

O=S(=O)(O)ON=C1c2ccccc2-c2ccccc21 showed a TGI [1] of over 100 µM, a TGI [2] of over 100 µM and a TGI [3] of over 100 µM. It also gave a TGI [4] of over 100 µM, a TGI [5] of over 100 µM and a TGI [6] of over 100 µM. The TGI [7] was over 100 µM, the TGI [8] was over 100 µM and the TGI [9] was over 100 µM. For the same compound, the TGI [10] was over 100 µM.

Compound CCOC(=O)c1c(N2CCCC2)[nH]c(=O)c(C(c2ccco2)c2c(O)c(C(=O)OCC)c(N3CCCC3)[nH]c2=O)c1O has a TGI [1] of over 100 µM, a TGI [2] of over 100 µM and a TGI [3] of over 100 µM. For the same compound, the TGI [4] was over 100 µM, the TGI [5] was over 100 µM and the TGI [6] was over 100 µM. It also gave a TGI [7] of over 100 µM, a TGI [8] of over 100 µM and a TGI [9] of over 100 µM. The TGI [10] was over 100 µM.

In the case of Cc1ccc(OC2CC(n3cnc4ncnc(Cl)c43)OC2Oc2ccc(C)cc2)cc1 (configuration not stated), the TGI [1] was 24.9 µM, the TGI [2] was 31 µM and the TGI [3] was 42.5 µM. It also gave a TGI [4] of over 100 µM, a TGI [5] of 36.3 µM and a TGI [6] of over 100 µM. It also gave a TGI [7] of 23.9 µM, a TGI [8] of over 100 µM and a TGI [9] of over 100 µM. For the same compound, the TGI [10] was 58.3 µM.

With CCOC(=O)C(C(=S)Nc1ccccc1)c1nn2c(=O)cc(C)nc2s1 (configuration not stated) the TGI [1] was 60.6 µM, the TGI [2] was 70 µM and the TGI [3] was over 100 µM. The TGI [4] was 43.8 µM, the TGI [5] was 66.3 µM and the TGI [6] was over 100 µM. The TGI [7] was 70 µM, the TGI [8] was 80.9 µM and the TGI [9] was 78.7 µM. For the same compound, the TGI [10] was over 100 µM.

Work on O=C(CCCCCCC(=O)Nc1cccnc1)NO yielded a TGI [1] of 54.5 µM, a TGI [2] of over 100 µM and a TGI [3] of over 100 µM. The TGI [4] was 31.6 µM, the TGI [5] was over 100 µM and the TGI [6] was over 100 µM. For the same compound, the TGI [7] was over 100 µM, the TGI [8] was over 100 µM and the TGI [9] was over 100 µM. It also gave a TGI [10] of over 32.1 µM.

With CCOC(=O)Cc1nc2sc(S(N)(=O)=O)nn2c1Br the TGI [1] was 48.1 µM, the TGI [2] was 73 µM and the TGI [3] was over 100 µM. It also gave a TGI [4] of over 100 µM, a TGI [5] of 63.9 µM and a TGI [6] of 48 µM. The TGI [7] was 29.4 µM, the TGI [8] was over 100 µM and the TGI [9] was 83.8 µM. For the same compound, the TGI [10] was over 100 µM.

CCOC(=O)c1ccc(C(=O)/C(C(C)=O)=C2\CCCN2C)n1C showed a TGI [1] of over 100 µM, a TGI [2] of over 100 µM and a TGI [3] of over 100 µM. It also gave a TGI [4] of 64.2 µM, a TGI [5] of over 100 µM and a TGI [6] of over 100 µM. For the same compound, the TGI [7] was over 100 µM, the TGI [8] was 98.9 µM and the TGI [9] was over 100 µM. It also gave a TGI [10] of over 100 µM.

O=C1[C@@H]2[C@@H](c3ccccc3)[C@]2(Cl)C(=O)[C@H]2[C@H](c3ccccc3)[C@@]12Cl was tested, and the TGI [1] was over 100 µM, the TGI [2] was over 100 µM and the TGI [3] was over 100 µM. The TGI [4] was over 100 µM, the TGI [5] was over 100 µM and the TGI [6] was over 100 µM. For the same compound, the TGI [7] was over 100 µM, the TGI [8] was over 100 µM and the TGI [9] was over 100 µM. The TGI [10] was over 100 µM.

CC(=C(C(N)=O)C(N)=O)C1C=C(c2cccs2)CC(c2ccc(Cl)cc2)=C1O (configuration not stated) was tested, and the TGI [1] was over 100 µM, the TGI [2] was over 100 µM and the TGI [3] was over 100 µM. The TGI [4] was over 100 µM, the TGI [5] was over 100 µM and the TGI [6] was over 100 µM. The TGI [7] was over 100 µM, the TGI [8] was 81.6 µM and the TGI [9] was over 100 µM. The TGI [10] was over 100 µM.

Compound O=c1oc2cc(O)ccc2c(O)c1C(c1cccnc1)c1c(O)c2ccc(O)cc2oc1=O has a TGI [1] of over 100 µM, a TGI [2] of over 100 µM and a TGI [3] of over 100 µM. The TGI [4] was over 100 µM, the TGI [5] was over 100 µM and the TGI [6] was over 100 µM. The TGI [7] was over 100 µM, the TGI [8] was over 100 µM and the TGI [9] was over 100 µM. For the same compound, the TGI [10] was over 100 µM.

In the case of COc1ccc(OC)c(CC2CCc3nc(N)nc(N)c3C2)c1 (configuration not stated), the TGI [1] was over 49.9 µM, the TGI [2] was over 49.4 µM and the TGI [3] was over 81.8 µM. For the same compound, the TGI [4] was over 100 µM, the TGI [5] was 52.7 µM and the TGI [6] was over 100 µM. It also gave a TGI [7] of over 75.4 µM, a TGI [8] of over 69.8 µM and a TGI [9] of 6.22 µM. For the same compound, the TGI [10] was over 100 µM.

Work on O=C1/C(=C/c2ccc(Cl)cc2)N=C(c2ccccc2)N1CCc1cccs1 yielded a GI50 [1] of 31.8 µM, a TGI [1] of over 100 µM and a GI50 [2] of 21.2 µM. The TGI [2] was over 100 µM, the GI50 [3] was 29.4 µM and the TGI [3] was over 100 µM. The GI50 [4] was 21.4 µM, the TGI [4] was 90.2 µM and the GI50 [5] was 13 µM. For the same compound, the TGI [5] was over 100 µM, the GI50 [6] was 30.6 µM and the TGI [6] was over 100 µM. The GI50 [8] was 24.2 µM, the TGI [8] was over 100 µM and the GI50 [9] was 22.1 µM. For the same compound, the TGI [9] was over 100 µM, the GI50 [10] was 61.2 µM and the TGI [10] was over 100 µM.

Work on Brc1ccc2c([C@H]3CN[C@@H](c4c[nH]c5cc(Br)ccc45)CN3)c[nH]c2c1 yielded a TGI [1] of 3.02 µM, a TGI [2] of 20.8 µM and a TGI [3] of 21.8 µM. For the same compound, the TGI [4] was 4.22 µM, the TGI [5] was 15.2 µM and the TGI [6] was 3.28 µM. It also gave a TGI [7] of 13.8 µM, a TGI [8] of 6.77 µM and a TGI [9] of 24.7 µM. It also gave a TGI [10] of 10.5 µM.

O=C(Cc1nccc2c1[nH]c1ccccc12)OC1C#CCSCC#C/C=C\1 (configuration not stated) showed a TGI [1] of over 100 µM, a TGI [2] of over 100 µM and a TGI [3] of over 100 µM. For the same compound, the TGI [4] was over 100 µM, the TGI [5] was over 100 µM and the TGI [6] was over 100 µM. It also gave a TGI [7] of over 100 µM, a TGI [8] of over 100 µM and a TGI [9] of over 100 µM.
